Laboratory results from patent US6358885B1, “Substituted phenylheterocyclic herbicides” (Mississippi State University, priority 1992, dated 2002).

Key:
Assay in all cases: Test F preemergence/postemergence greenhouse plant response rating 0 to 100
Details in all cases: 0 to 100 scale
green foxtail = assay type: in vivo, Setaria viridis
From the text: (§1) Compounds evaluated in this test were formulated in a non-phytoxic solvent and applied to the soil surface before plant seedlings emerged (preemergence application) and to plants that were in the one-to-four leaf stage (postemergence application). A sandy loam soil was used for the preemergence test while a mixture of sandy loam soil and greenhouse potting mix in a 60:40 ratio was used for the postemergence test. Test compounds were applied within approximately one day after planting seeds for the preemergence test. Plantings of these crops and weed species were adjusted to produce plants of appropriate size for the postemergence test. All plant species were grown using normal greenhouse practices. Crop and weed species include winter barley (Hordeum vulgare cv. ‘Igri’), blackgrass (Alopecurus myosuroides), chickweed (Stellaria media), downy brome (Bromus tectorum), field violet (Viola arvensis), galium (Galium aparine), green foxtail (Setaria viridis), kochia (Kochia scoparia), lambsquarters (Chenopodium album), speedwell (Veronica persica), rape (Brassica napus), ryegrass (Lolium multiflorum), sugar beet (Beta vulgaris cv. ‘USl’), sunflower (Helianthus annuus cv. ‘Russian Giant’), spring wheat (Triticum aestivum cv. ‘ERA’), winter wheat (Triticum aestivum cv. ‘Talent’), wild buckwheat (Polygonum convolvulus), wild mustard (Sinapis arvensis), wild oat (Avena fatua), and wild radish (Raphanus raphanistrum). Blackgrass, galium and wild oat were treated at two growth stages. […] Treated plants and untreated controls were maintained in a greenhouse for approximately 21 to 28 days, after which all treated plants were compared to untreated controls and visually evaluated. […] A dash response (-) means no test result.

sugar beet = assay type: in vivo, Beta vulgaris cv. ‘USl’
From the text: as §1

kochia = assay type: in vivo, Kochia scoparia
From the text: as §1

wild buckwheat = assay type: in vivo, Polygonum convolvulus
From the text: as §1

galium = assay type: in vivo, Galium aparine
From the text: as §1

field violet = assay type: in vivo, Viola arvensis
From the text: as §1

rape = assay type: in vivo, Brassica napus
From the text: as §1

C#CCOc1cc(-c2nn3c(c2Br)CCCC3)c(F)cc1Cl [Compound 26]
Green foxtail plant response rating (green foxtail; POSTEMERGENCE, Rate 4 g/ha): 0
Green foxtail plant response rating (green foxtail; POSTEMERGENCE, Rate 8 g/ha): 0
Green foxtail plant response rating (green foxtail; POSTEMERGENCE, Rate 16 g/ha): 50
Green foxtail plant response rating (green foxtail; POSTEMERGENCE, Rate 32 g/ha): 60
Green foxtail plant response rating (green foxtail; POSTEMERGENCE, Rate 64 g/ha): 70
Green foxtail plant response rating (green foxtail; POSTEMERGENCE, Rate 125 g/ha): 80
Green foxtail plant response rating (green foxtail; POSTEMERGENCE, Rate 250 g/ha): 50
Green foxtail plant response rating (green foxtail; PREEMERGENCE, Rate 4 g/ha): 0
Green foxtail plant response rating (green foxtail; PREEMERGENCE, Rate 8 g/ha): 0
Green foxtail plant response rating (green foxtail; PREEMERGENCE, Rate 16 g/ha): 20
Green foxtail plant response rating (green foxtail; PREEMERGENCE, Rate 32 g/ha): 50
Green foxtail plant response rating (green foxtail; PREEMERGENCE, Rate 64 g/ha): 100
Green foxtail plant response rating (green foxtail; PREEMERGENCE, Rate 125 g/ha): 100
Green foxtail plant response rating (green foxtail; PREEMERGENCE, Rate 250 g/ha): 100
Sugar beet plant response rating (sugar beet; POSTEMERGENCE, Rate 4 g/ha): 100
Sugar beet plant response rating (sugar beet; POSTEMERGENCE, Rate 8 g/ha): 100
Sugar beet plant response rating (sugar beet; POSTEMERGENCE, Rate 16 g/ha): 100
Sugar beet plant response rating (sugar beet; POSTEMERGENCE, Rate 32 g/ha): 100
Sugar beet plant response rating (sugar beet; POSTEMERGENCE, Rate 64 g/ha): 100
Sugar beet plant response rating (sugar beet; POSTEMERGENCE, Rate 125 g/ha): 100
Sugar beet plant response rating (sugar beet; POSTEMERGENCE, Rate 250 g/ha): 100
Sugar beet plant response rating (sugar beet; PREEMERGENCE, Rate 4 g/ha): 0
Sugar beet plant response rating (sugar beet; PREEMERGENCE, Rate 8 g/ha): 50
Sugar beet plant response rating (sugar beet; PREEMERGENCE, Rate 16 g/ha): 60
Sugar beet plant response rating (sugar beet; PREEMERGENCE, Rate 32 g/ha): 70
Sugar beet plant response rating (sugar beet; PREEMERGENCE, Rate 64 g/ha): 100
Sugar beet plant response rating (sugar beet; PREEMERGENCE, Rate 125 g/ha): 100
Sugar beet plant response rating (sugar beet; PREEMERGENCE, Rate 250 g/ha): 100
Kochia plant response rating (kochia; POSTEMERGENCE, Rate 4 g/ha): 100
Kochia plant response rating (kochia; POSTEMERGENCE, Rate 8 g/ha): 100
Kochia plant response rating (kochia; POSTEMERGENCE, Rate 16 g/ha): 100
Kochia plant response rating (kochia; POSTEMERGENCE, Rate 32 g/ha): 100
Kochia plant response rating (kochia; POSTEMERGENCE, Rate 64 g/ha): 100
Kochia plant response rating (kochia; POSTEMERGENCE, Rate 125 g/ha): 100
Kochia plant response rating (kochia; POSTEMERGENCE, Rate 250 g/ha): 100
Kochia plant response rating (kochia; PREEMERGENCE, Rate 4 g/ha): 0
Kochia plant response rating (kochia; PREEMERGENCE, Rate 8 g/ha): 0
Kochia plant response rating (kochia; PREEMERGENCE, Rate 16 g/ha): 80
Kochia plant response rating (kochia; PREEMERGENCE, Rate 32 g/ha): 80
Kochia plant response rating (kochia; PREEMERGENCE, Rate 64 g/ha): 100
Kochia plant response rating (kochia; PREEMERGENCE, Rate 125 g/ha): 100
Wild buckwheat plant response rating (wild buckwheat; POSTEMERGENCE, Rate 4 g/ha): 100
Wild buckwheat plant response rating (wild buckwheat; POSTEMERGENCE, Rate 8 g/ha): 100
Wild buckwheat plant response rating (wild buckwheat; POSTEMERGENCE, Rate 16 g/ha): 100
Wild buckwheat plant response rating (wild buckwheat; POSTEMERGENCE, Rate 32 g/ha): 100
Wild buckwheat plant response rating (wild buckwheat; POSTEMERGENCE, Rate 64 g/ha): 100
Wild buckwheat plant response rating (wild buckwheat; POSTEMERGENCE, Rate 125 g/ha): 100
Wild buckwheat plant response rating (wild buckwheat; POSTEMERGENCE, Rate 250 g/ha): 100
Wild buckwheat plant response rating (wild buckwheat; PREEMERGENCE, Rate 4 g/ha): 0
Wild buckwheat plant response rating (wild buckwheat; PREEMERGENCE, Rate 8 g/ha): 0
Wild buckwheat plant response rating (wild buckwheat; PREEMERGENCE, Rate 16 g/ha): 30
Wild buckwheat plant response rating (wild buckwheat; PREEMERGENCE, Rate 32 g/ha): 100
Wild buckwheat plant response rating (wild buckwheat; PREEMERGENCE, Rate 64 g/ha): 100
Wild buckwheat plant response rating (wild buckwheat; PREEMERGENCE, Rate 125 g/ha): 100
Wild buckwheat plant response rating (wild buckwheat; PREEMERGENCE, Rate 250 g/ha): 100
Galium (1) plant response rating (galium; POSTEMERGENCE, Rate 4 g/ha, stage (1) two to three leaves): 0
Galium (2) plant response rating (galium; POSTEMERGENCE, Rate 4 g/ha, stage (2) approximately four leaves or initial tillering): 50
Galium (1) plant response rating (galium; POSTEMERGENCE, Rate 8 g/ha, stage (1) two to three leaves): 0
Galium (2) plant response rating (galium; POSTEMERGENCE, Rate 8 g/ha, stage (2) approximately four leaves or initial tillering): 50
Galium (1) plant response rating (galium; POSTEMERGENCE, Rate 16 g/ha, stage (1) two to three leaves): 30
Galium (2) plant response rating (galium; POSTEMERGENCE, Rate 16 g/ha, stage (2) approximately four leaves or initial tillering): 100
Galium (1) plant response rating (galium; POSTEMERGENCE, Rate 32 g/ha, stage (1) two to three leaves): 50
Galium (2) plant response rating (galium; POSTEMERGENCE, Rate 32 g/ha, stage (2) approximately four leaves or initial tillering): 60
Galium (1) plant response rating (galium; POSTEMERGENCE, Rate 64 g/ha, stage (1) two to three leaves): 100
Galium (2) plant response rating (galium; POSTEMERGENCE, Rate 64 g/ha, stage (2) approximately four leaves or initial tillering): 100
Galium (1) plant response rating (galium; POSTEMERGENCE, Rate 125 g/ha, stage (1) two to three leaves): 100
Galium (2) plant response rating (galium; POSTEMERGENCE, Rate 125 g/ha, stage (2) approximately four leaves or initial tillering): 100
Galium (1) plant response rating (galium; POSTEMERGENCE, Rate 250 g/ha, stage (1) two to three leaves): 100
Galium (2) plant response rating (galium; POSTEMERGENCE, Rate 250 g/ha, stage (2) approximately four leaves or initial tillering): 100
Galium (1) plant response rating (galium; PREEMERGENCE, Rate 4 g/ha, Galium (1)): 0
Galium (2) plant response rating (galium; PREEMERGENCE, Rate 4 g/ha, Galium (2)): 0
Galium (1) plant response rating (galium; PREEMERGENCE, Rate 8 g/ha, Galium (1)): 0
Galium (2) plant response rating (galium; PREEMERGENCE, Rate 8 g/ha, Galium (2)): 20
Galium (1) plant response rating (galium; PREEMERGENCE, Rate 16 g/ha, Galium (1)): 0
Galium (2) plant response rating (galium; PREEMERGENCE, Rate 16 g/ha, Galium (2)): 40
Galium (1) plant response rating (galium; PREEMERGENCE, Rate 32 g/ha, Galium (1)): 100
Galium (2) plant response rating (galium; PREEMERGENCE, Rate 32 g/ha, Galium (2)): 100
Galium (1) plant response rating (galium; PREEMERGENCE, Rate 64 g/ha, Galium (1)): 100
Galium (2) plant response rating (galium; PREEMERGENCE, Rate 64 g/ha, Galium (2)): 100
Galium (1) plant response rating (galium; PREEMERGENCE, Rate 125 g/ha, Galium (1)): 100
Galium (2) plant response rating (galium; PREEMERGENCE, Rate 125 g/ha, Galium (2)): 100
Galium (1) plant response rating (galium; PREEMERGENCE, Rate 250 g/ha, Galium (1)): 100
Galium (2) plant response rating (galium; PREEMERGENCE, Rate 250 g/ha, Galium (2)): 100
Field violet plant response rating (field violet; POSTEMERGENCE, Rate 4 g/ha): 100
Field violet plant response rating (field violet; POSTEMERGENCE, Rate 8 g/ha): 100
Field violet plant response rating (field violet; POSTEMERGENCE, Rate 16 g/ha): 100
Field violet plant response rating (field violet; POSTEMERGENCE, Rate 32 g/ha): 100
Field violet plant response rating (field violet; POSTEMERGENCE, Rate 64 g/ha): 100
Field violet plant response rating (field violet; POSTEMERGENCE, Rate 125 g/ha): 100
Field violet plant response rating (field violet; POSTEMERGENCE, Rate 250 g/ha): 100
Field violet plant response rating (field violet; PREEMERGENCE, Rate 4 g/ha): 0
Field violet plant response rating (field violet; PREEMERGENCE, Rate 8 g/ha): 0
Field violet plant response rating (field violet; PREEMERGENCE, Rate 16 g/ha): 70
Field violet plant response rating (field violet; PREEMERGENCE, Rate 32 g/ha): 100
Field violet plant response rating (field violet; PREEMERGENCE, Rate 64 g/ha): 100
Field violet plant response rating (field violet; PREEMERGENCE, Rate 125 g/ha): 100
Field violet plant response rating (field violet; PREEMERGENCE, Rate 250 g/ha): 100
Rape plant response rating (rape; POSTEMERGENCE, Rate 4 g/ha): 0
Rape plant response rating (rape; POSTEMERGENCE, Rate 8 g/ha): 0
Rape plant response rating (rape; POSTEMERGENCE, Rate 16 g/ha): 50
Rape plant response rating (rape; POSTEMERGENCE, Rate 32 g/ha): 100
Rape plant response rating (rape; POSTEMERGENCE, Rate 64 g/ha): 100
Rape plant response rating (rape; POSTEMERGENCE, Rate 125 g/ha): 100
Rape plant response rating (rape; POSTEMERGENCE, Rate 250 g/ha): 100
Rape plant response rating (rape; PREEMERGENCE, Rate 4 g/ha): 0
Rape plant response rating (rape; PREEMERGENCE, Rate 8 g/ha): 0
Rape plant response rating (rape; PREEMERGENCE, Rate 16 g/ha): 0
Rape plant response rating (rape; PREEMERGENCE, Rate 32 g/ha): 20
Rape plant response rating (rape; PREEMERGENCE, Rate 64 g/ha): 60
Rape plant response rating (rape; PREEMERGENCE, Rate 125 g/ha): 80
Rape plant response rating (rape; PREEMERGENCE, Rate 250 g/ha): 100
